Where two headings read alike, the source gives them in different places.
Key:
CSF1R/FMS = target: T1, CSF1R/FMS (Homo sapiens, UniProt P07333); assay: KINOMEscan kinase binding assay
T1 construct: purchased Eurofins (KINOMEscan service)
Protocol: (§1) Kd values were calculated from duplicate 11-point dose-response curves.
(§2) KINOMEscan kinase binding assays were performed at a Eurofins laboratory as previously described.

FLT1 = target: T2, FLT1 (Homo sapiens, UniProt P17948); assay: KINOMEscan kinase binding assay
T2 construct: purchased Eurofins (KINOMEscan service)
Protocol: as §1, §2

FLT4 = target: T3, FLT4 (Homo sapiens, UniProt P35916); assay: KINOMEscan kinase binding assay
T3 construct: purchased Eurofins (KINOMEscan service)
Protocol: as §1, §2

KDR/VEGFR2 = target: T4, KDR/VEGFR2 (Homo sapiens, UniProt P35968); assay: KINOMEscan kinase binding assay
T4 construct: purchased Eurofins (KINOMEscan service)
Protocol: as §1, §2

KIT = target: T5, KIT (Homo sapiens, UniProt P10721); assay: KINOMEscan kinase binding assay; conditions: kinase KIT
T5 construct: purchased Eurofins (KINOMEscan service)
Protocol: as §1, §2

MEK5 = target: T6, MEK5 (Homo sapiens, UniProt Q13163); assay: KINOMEscan kinase binding assay; conditions: kinase MEK5 (Entrez MAP2K5)
T6 construct: purchased Eurofins (KINOMEscan service)
Protocol: as §1, §2

PDGFRα = target: T7, PDGFRα (Homo sapiens, UniProt P16234); assay: KINOMEscan kinase binding assay; conditions: kinase PDGFRA (PDGFRA)
T7 construct: purchased Eurofins (KINOMEscan service)
Protocol: as §1, §2

PDGFRβ = target: T8, PDGFRβ (Homo sapiens, UniProt P09619); assay: KINOMEscan kinase binding assay; conditions: kinase PDGFRB (PDGFRB)
T8 construct: purchased Eurofins (KINOMEscan service)
Protocol: as §1, §2

RET = target: T9, RET (Homo sapiens, UniProt P07949); assay: KINOMEscan kinase binding assay
T9 construct: purchased Eurofins (KINOMEscan service)
Protocol: as §1, §2

ULK2 = target: T10, ULK2 (Homo sapiens, UniProt Q8IYT8); assay: KINOMEscan kinase binding assay; conditions: kinase ULK2 (ULK2)
T10 construct: purchased Eurofins (KINOMEscan service)
T10 sequence (Q8IYT8 1-1036): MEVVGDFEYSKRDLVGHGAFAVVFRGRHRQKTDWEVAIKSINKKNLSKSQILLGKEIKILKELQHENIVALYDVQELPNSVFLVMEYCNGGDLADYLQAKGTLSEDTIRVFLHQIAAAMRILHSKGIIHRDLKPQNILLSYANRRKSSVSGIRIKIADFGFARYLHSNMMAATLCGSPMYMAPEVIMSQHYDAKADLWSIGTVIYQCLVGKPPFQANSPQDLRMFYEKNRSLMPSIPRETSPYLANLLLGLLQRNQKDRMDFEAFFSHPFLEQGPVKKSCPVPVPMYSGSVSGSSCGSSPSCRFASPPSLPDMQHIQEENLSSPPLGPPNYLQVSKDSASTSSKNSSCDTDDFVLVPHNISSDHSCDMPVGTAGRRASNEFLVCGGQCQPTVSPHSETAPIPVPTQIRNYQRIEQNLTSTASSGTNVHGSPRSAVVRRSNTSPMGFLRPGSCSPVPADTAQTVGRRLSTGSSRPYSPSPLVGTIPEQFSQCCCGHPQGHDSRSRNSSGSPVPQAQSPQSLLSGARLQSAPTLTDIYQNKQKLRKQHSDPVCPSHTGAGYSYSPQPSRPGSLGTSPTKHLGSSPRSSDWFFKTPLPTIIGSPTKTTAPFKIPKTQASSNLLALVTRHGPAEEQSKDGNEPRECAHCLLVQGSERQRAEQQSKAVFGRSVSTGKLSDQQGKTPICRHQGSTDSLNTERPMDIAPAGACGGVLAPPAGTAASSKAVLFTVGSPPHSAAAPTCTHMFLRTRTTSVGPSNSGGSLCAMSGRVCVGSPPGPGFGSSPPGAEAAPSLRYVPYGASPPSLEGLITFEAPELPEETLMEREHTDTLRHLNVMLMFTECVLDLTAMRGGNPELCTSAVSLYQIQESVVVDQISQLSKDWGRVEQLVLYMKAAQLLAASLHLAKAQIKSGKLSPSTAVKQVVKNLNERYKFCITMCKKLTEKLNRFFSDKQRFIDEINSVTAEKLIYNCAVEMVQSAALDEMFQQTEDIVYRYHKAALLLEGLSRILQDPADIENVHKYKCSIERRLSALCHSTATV
Protocol: as §1, §2

FLT3 signaling = assay: FLT3 inhibitor washout experiment in MOLM-14 cells; assay type: cell-based, human
EOL-1 cells = assay: Cell viability assay (CellTiter-Glo 2.0); assay type: cell-based, human; conditions: Homo sapiens, EOL1, 72 h; EOL-1, wild-type FLT3 with FIP1L-PDGFRα, 3 days
Protocol: (§3) Human AML cell lines MV4-11, Kasumi-1, HL-60, and THP-1 were purchased from the American Type Culture Collection (Manassas, Virginia, USA). MV4-11 cells were cultured in Iscove’s Modified Dulbecco’s Medium (IMDM; Thermo Fisher Scientific, Waltham, Massachusetts, USA) supplemented with 10% (vol/vol) heat-inactivated fetal bovine serum (FBS; GE Healthcare Ltd, Chicago, Illinois, USA). […] HL-60 cells were cultured in IMDM supplemented with 20% (vol/vol) heat-inactivated FBS. […] Human AML cell lines, MOLM-13, MOLM-14, EOL-1, and OCI-AML3, were purchased from Leibniz-Institut DSMZ-Deutsche Sammlung von Mikroorganismen und Zellkulturen GmbH.
(§4) The amount of ATP in viable cells was quantified as a luminescent signal using the CellTiter-Glo 2.0 Assay (Promega Corporation, Madison, Wisconsin, USA) and EnVision (PerkinElmer Inc, Waltham, Massachusetts, USA) to determine the number of viable cells according to the manufacturers’ instructions.

HL-60 cells = assay: Cell viability assay (CellTiter-Glo 2.0); assay type: cell-based, human; conditions: Homo sapiens, 72 h; HL-60, wild-type FLT3, 3 days
Protocol: as §3, §4

Kasumi-1 cells = assay: Cell viability assay (CellTiter-Glo 2.0); assay type: cell-based, human; conditions: Homo sapiens, Kasumi 1, 72 h
Protocol: as §3, §4

MOLM-13 cells = assay: Cell viability assay (CellTiter-Glo 2.0); assay type: cell-based, human; conditions: Homo sapiens
Protocol: as §3, §4

MOLM-14 cells = assay: Cell viability assay (CellTiter-Glo 2.0); assay type: cell-based, human; conditions: Homo sapiens, MOLM-14, 72 h, 3 days, read-out: IC50, cell viability
Protocol: as §3, §4

MV4-11 cells = assay: Cell viability assay (CellTiter-Glo 2.0); assay type: cell-based, human; conditions: Homo sapiens, 72 h; MV4-11, FLT3-ITD, 3 days
Protocol: as §3, §4

OCI-AML3 cells = assay: Cell viability assay (CellTiter-Glo 2.0); assay type: cell-based, human; conditions: Homo sapiens, OCI-AML-3, 72 h; OCI-AML3, wild-type FLT3, 3 days; read-out: IC50, cell viability
Protocol: as §3, §4

THP-1 cells = assay: Cell viability assay (CellTiter-Glo 2.0); assay type: cell-based, human; conditions: Homo sapiens, 72 h; THP-1, wild-type FLT3, 3 days; read-out: IC50, cell viability
Protocol: as §3, §4

MOLM-14-MR2 tumors = assay: MOLM-14-MR2 xenograft mouse model; assay type: in vivo; conditions: MOLM-14-MR2 tumors (NRAS mutated), oral once per day
MOLM-14-MR cells = assay: cells; conditions: Homo sapiens, 72 h, read-out: IC50, cell viability
MOLM-14-MR2 cells = assay: cells; conditions: Homo sapiens, 72 h, read-out: IC50, cell viability
MOLM-13-QR cells = assay: cells; conditions: Homo sapiens, read-out: IC50, cell viability
MOLM-13-QR2 cells = assay: cells; conditions: Homo sapiens, read-out: IC50, cell viability
[1] = system: midostaurin-resistant MOLM-14 cells; assay: cells; conditions: Homo sapiens, MOLM-14, read-out: IC50 against midostaurin-resistant MOLM-14 cells
MV4-11 tumors = assay: MV4-11 xenograft mouse model; conditions: Figure 3B

T5 sequence (P10721 26-976): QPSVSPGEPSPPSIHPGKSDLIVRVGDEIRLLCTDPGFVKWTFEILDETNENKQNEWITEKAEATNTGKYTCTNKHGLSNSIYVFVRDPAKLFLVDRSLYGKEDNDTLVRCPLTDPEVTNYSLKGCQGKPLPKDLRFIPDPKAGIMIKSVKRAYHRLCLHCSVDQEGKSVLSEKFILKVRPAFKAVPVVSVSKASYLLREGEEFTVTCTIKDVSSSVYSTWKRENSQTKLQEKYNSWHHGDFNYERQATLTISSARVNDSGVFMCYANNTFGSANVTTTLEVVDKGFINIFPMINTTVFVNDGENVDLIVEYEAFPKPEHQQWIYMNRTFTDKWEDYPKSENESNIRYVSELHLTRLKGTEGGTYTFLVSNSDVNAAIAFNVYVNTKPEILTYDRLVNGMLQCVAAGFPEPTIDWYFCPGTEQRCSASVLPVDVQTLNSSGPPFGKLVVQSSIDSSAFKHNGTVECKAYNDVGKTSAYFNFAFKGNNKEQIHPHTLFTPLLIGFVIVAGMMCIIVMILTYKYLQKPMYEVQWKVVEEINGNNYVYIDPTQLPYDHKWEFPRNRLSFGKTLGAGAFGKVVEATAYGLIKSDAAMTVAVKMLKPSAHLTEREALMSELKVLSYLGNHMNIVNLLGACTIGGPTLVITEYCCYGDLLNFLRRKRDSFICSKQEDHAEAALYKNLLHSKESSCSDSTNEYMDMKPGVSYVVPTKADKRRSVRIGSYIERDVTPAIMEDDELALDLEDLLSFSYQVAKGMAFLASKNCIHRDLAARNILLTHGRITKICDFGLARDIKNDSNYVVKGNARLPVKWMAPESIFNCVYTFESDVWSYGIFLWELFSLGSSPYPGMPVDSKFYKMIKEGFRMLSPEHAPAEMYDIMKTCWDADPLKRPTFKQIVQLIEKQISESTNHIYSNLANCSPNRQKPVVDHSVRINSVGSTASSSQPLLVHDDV
T3 sequence (P35916 25-1363): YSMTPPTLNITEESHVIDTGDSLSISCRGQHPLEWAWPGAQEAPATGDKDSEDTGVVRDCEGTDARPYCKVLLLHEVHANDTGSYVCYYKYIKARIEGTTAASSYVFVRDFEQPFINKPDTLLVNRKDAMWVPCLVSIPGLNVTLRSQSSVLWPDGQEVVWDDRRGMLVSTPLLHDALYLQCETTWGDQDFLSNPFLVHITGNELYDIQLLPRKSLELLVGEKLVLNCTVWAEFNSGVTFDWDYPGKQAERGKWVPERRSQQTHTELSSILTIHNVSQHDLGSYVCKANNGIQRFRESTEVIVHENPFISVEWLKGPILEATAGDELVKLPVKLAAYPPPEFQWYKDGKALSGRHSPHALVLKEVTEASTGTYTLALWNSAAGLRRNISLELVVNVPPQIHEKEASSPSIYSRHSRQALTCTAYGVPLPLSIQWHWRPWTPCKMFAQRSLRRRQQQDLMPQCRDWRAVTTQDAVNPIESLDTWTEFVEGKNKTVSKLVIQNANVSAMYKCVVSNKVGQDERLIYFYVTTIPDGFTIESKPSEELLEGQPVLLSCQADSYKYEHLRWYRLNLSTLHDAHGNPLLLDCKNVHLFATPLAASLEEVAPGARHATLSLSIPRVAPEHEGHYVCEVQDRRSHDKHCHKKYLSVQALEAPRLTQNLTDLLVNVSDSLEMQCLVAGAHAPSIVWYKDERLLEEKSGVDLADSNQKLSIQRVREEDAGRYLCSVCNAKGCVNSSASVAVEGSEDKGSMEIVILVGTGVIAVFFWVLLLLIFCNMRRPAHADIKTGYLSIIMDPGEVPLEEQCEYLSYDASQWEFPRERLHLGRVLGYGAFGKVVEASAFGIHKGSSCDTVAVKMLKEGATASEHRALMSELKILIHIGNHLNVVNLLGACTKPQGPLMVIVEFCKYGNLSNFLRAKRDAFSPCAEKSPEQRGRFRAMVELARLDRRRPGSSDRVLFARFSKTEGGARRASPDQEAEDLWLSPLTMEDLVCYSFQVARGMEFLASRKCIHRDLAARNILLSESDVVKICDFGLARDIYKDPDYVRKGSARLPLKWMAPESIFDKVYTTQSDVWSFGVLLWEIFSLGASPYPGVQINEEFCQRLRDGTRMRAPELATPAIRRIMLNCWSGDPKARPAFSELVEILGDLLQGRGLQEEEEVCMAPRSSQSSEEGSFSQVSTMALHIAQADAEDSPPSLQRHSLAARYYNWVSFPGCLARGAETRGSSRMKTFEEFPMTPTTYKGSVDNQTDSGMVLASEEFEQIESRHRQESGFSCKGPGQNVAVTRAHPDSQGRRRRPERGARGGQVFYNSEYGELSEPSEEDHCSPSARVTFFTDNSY
T6 sequence (Q13163 whole entry): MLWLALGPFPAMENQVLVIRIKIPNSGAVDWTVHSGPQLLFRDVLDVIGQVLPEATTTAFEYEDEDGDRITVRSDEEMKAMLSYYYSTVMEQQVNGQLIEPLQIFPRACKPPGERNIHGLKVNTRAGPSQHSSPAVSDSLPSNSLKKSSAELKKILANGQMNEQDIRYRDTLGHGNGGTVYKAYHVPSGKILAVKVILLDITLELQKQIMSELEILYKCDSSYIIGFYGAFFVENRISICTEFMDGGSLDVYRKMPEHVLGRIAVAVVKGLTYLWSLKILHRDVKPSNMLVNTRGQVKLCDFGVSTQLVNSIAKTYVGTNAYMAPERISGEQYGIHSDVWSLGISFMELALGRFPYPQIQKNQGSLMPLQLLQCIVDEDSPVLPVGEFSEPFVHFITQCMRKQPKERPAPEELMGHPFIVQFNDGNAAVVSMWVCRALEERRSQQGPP
T1 sequence (P07333 20-972): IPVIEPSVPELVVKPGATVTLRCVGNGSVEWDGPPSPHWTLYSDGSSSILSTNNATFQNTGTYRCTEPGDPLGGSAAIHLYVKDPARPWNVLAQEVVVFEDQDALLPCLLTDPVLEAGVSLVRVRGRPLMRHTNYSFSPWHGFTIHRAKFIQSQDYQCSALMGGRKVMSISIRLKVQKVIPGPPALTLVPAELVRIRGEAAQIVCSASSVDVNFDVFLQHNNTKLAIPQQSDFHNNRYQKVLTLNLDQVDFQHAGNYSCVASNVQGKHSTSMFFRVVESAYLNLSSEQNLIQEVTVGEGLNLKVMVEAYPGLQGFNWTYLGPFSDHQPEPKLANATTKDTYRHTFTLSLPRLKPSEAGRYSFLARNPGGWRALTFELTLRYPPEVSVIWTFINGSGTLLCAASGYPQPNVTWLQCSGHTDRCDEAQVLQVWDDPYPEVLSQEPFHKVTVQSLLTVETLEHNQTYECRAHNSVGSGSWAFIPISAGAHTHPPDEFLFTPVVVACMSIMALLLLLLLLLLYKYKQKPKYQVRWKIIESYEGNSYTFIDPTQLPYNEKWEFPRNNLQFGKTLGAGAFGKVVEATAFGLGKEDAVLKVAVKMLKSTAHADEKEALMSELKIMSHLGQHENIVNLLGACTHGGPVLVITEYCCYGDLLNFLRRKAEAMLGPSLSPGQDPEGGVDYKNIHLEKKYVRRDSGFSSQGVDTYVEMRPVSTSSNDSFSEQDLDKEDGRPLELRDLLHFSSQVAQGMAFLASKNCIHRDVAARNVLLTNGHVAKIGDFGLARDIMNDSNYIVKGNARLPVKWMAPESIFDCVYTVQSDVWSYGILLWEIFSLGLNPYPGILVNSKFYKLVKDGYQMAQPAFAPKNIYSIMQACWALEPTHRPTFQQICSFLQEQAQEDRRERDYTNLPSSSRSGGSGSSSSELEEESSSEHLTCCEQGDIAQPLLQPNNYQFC
T9 sequence (P07949 29-1114): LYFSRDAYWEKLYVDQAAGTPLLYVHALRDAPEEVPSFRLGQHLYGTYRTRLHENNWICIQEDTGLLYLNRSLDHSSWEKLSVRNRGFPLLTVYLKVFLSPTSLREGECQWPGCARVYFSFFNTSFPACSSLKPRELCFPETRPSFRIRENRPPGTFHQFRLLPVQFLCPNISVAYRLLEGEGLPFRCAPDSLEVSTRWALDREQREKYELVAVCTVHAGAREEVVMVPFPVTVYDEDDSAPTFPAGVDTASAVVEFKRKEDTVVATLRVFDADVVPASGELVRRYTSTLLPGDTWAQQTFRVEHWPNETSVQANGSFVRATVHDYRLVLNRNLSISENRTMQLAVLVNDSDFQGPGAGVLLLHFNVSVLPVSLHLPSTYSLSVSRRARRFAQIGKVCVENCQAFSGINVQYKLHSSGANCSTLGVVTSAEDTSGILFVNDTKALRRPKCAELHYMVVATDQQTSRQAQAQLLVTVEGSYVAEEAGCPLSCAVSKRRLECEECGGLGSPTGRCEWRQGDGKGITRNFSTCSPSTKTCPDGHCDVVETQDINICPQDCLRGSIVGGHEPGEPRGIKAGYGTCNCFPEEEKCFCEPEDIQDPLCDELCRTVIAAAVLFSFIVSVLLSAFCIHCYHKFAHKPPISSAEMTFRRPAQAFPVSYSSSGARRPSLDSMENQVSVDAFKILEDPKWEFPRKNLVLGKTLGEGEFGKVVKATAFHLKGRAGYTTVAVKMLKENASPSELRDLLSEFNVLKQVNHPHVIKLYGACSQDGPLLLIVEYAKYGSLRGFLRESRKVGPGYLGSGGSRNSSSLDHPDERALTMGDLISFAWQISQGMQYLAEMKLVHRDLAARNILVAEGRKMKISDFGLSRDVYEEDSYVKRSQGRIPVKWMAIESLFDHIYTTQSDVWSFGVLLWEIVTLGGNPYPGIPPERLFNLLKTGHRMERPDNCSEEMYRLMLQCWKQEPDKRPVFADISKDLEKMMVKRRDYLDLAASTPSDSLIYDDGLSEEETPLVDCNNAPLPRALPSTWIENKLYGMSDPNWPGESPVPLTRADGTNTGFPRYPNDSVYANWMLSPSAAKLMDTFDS

SMILES: CCc1nc(C(N)=O)c(Nc2ccc(N3CCC(N4CCN(C)CC4)CC3)c(OC)c2)nc1NC1CCOCC1 [Gilteritinib, gilteritinib]
- Kd (CSF1R/FMS): 46 nM
- Kd (FLT1): 380 nM
- Kd (FLT4): 150 nM
- Kd (KDR/VEGFR2): 100 nM
- Kd (KIT): 86 nM
- Kd (MEK5): 7.8 nM
- Kd (PDGFRα): 53 nM
- Kd (PDGFRβ): 240 nM
- Kd (RET): 11 nM
- Kd (ULK2): 700 nM
- Durability of inhibition of FLT3 and ERK phosphorylation after removal of inhibitor (FLT3 signaling): no significant inhibitory activity starting 1 hour after removal
- Long-term durability of inhibition of FLT3 signaling after compound withdrawal (FLT3 signaling): no longer able to inhibit FLT3 signaling at 24 hours
- IC50 (EOL-1 cells): 30.9 nM
- IC50 (HL-60 cells): 391 nM
- IC50 (Kasumi-1 cells): 160 nM
- IC50 (MOLM-13 cells; 72 h, MOLM-13, FLT3-ITD, 3 days, Supplementary Table 3): 10 nM
- IC50 (MOLM-13 cells; parental MOLM-13, FLT3-ITD, Supplementary Table 4): 7.89 nM
- IC50 (MOLM-14 cells; MOLM-14, FLT3-ITD, Supplementary Table 3): 7.41 nM
- IC50 (MOLM-14 cells; parental MOLM-14, FLT3-ITD, Figure 4B): 7.87 nM
- IC50 (MV4-11 cells): 2.01 nM
- IC50 (OCI-AML3 cells): 1420 nM
- IC50 (THP-1 cells): 1530 nM
- EC50, tumor growth inhibition (MOLM-14-MR2 tumors): > 10 mg/kg
- IC50 (MOLM-14-MR cells): 49.3 nM
- IC50 (MOLM-14-MR2 cells): 29.1 nM
- IC50 (MOLM-13-QR cells): 9.68 nM
- IC50 (MOLM-13-QR2 cells): 43 nM
- IC50 [1]: 29.1 to 49.3 nM
- TGI (MV4-11 tumors; 1 mg/kg oral once per day): 48%
- TGI (MV4-11 tumors; 3 mg/kg oral once per day): 82%
- TGI (MV4-11 tumors; 10 mg/kg oral once per day): 100%
- EC90, tumor growth inhibition (MV4-11 tumors; oral once per day): 5.06 mg/kg

From paper PMC7082118 (Oncotarget, 2020)
